We go through four compounds from patent publication US10138207B2, “Benzomorphan analogs and the use thereof” (priority 2012, dated 2018).

For experiment [1], the target named is T1, κ opioid receptor (Homo sapiens, UniProt P41145). Briefly: κ-opioid receptor [35S]GTPγS functional assay, U-2 OS cells. The arrangement: expressed in transfected cells; host or cells: U-2 OS (in-house membranes). Particulars: U-2 OS cells; for EC50: bound in μM, read-out: GTPγS κ EC50; for Emax: relative to U69,593, read-out: GTPγS κ Emax. Type of experiment: biochemical. In general terms: GTPγS is a poorly hydrolysed GTP analogue; its binding reports G protein activation.

Experiment [2] concerns the target T1, κ opioid receptor. Briefly: κ-opioid receptor [35S]GTPγS functional assay, HEK-293 or CHO cells. More on the design: expressed in transfected cells; host or cells: U-2 OS (in-house membranes). Particulars: HEK-293 or CHO cells; for EC50: bound in μM, read-out: GTPγS κ EC50; for Emax: relative to U69,593. Type of experiment: biochemical.
Experiment [3] addresses T2, μ-opioid receptor (Homo sapiens, UniProt P35372). Briefly: μ-opioid receptor [35S]GTPγS functional assay, U-2 OS cells. Type of experiment: biochemical. The arrangement: expressed in transfected cells; host or cells: U-2 OS. The conditions noted are these: U-2 OS cells; for EC50: read-out: GTPγS μ EC50; for Emax: relative to DAMGO, read-out: GTPγS μ Emax.
Experiment [4] deals with T2, μ-opioid receptor. In words: μ-opioid receptor [35S]GTPγS functional assay, HEK-293 or CHO cells. Particulars: for Emax: read-out: GTPγS μ Emax.
In experiment [5] the target is T3, human opioid receptor-like receptor (ORL-1) (Homo sapiens, UniProt P41146).
T3 construct: host or cells: HEK-293
In words: ORL-1 receptor radioligand binding assay ([3H]-nociceptin). Particulars: HEK-293 or CHO cells; bound in μM. On the procedure:
Membranes from recombinant HEK-293 cells expressing the human opioid receptor-like receptor (ORL-1) (Perkin Elmer, Shelton, Conn.) are prepared by lysing cells in ice-cold hypotonic buffer (2.5 mM MgCl2, 50 mM HEPES, pH 7.4) (10 ml/10 cm dish) followed by homogenization with a tissue grinder/Teflon pestle. Membranes are collected by centrifugation at 30,000×g for 15 min at 4° C. and pellets resuspended in hypotonic buffer to a final concentration of 1-3 mg/ml. Protein concentrations are determined using the BioRad protein assay reagent with bovine serum albumen as standard. Aliquots of the ORL-1 receptor membranes are stored at −80° C.
Radioligand binding assays (screening and dose-displacement) use 0.1 nM [^3H]-nociceptin (Perkin Elmer, Shelton, Conn.; 87.7 Ci/mmole) with 12 μg membrane protein in a final volume of 500 μl binding buffer (10 mM MgCl2, 1 mM EDTA, 5% DMSO, 50 mM HEPES, pH 7.4). Non-specific binding is determined in the presence of […] unlabeled nociceptin (American Peptide Company). All reactions are performed in 96-deep well polypropylene plates for 1 h at room temperature. […] The data from screening and dose-displacement experiments are analyzed using Microsoft Excel and the curve fitting functions in GraphPad PRISM™, v. 3.0 or higher, respectively, or an in-house function for one-site competition curve-fitting.

In experiment [6] the target is T1, κ opioid receptor. In words: biochemical. Type of experiment: binding. The arrangement: expressed in transfected cells; host or cells: HEK 293 (in-house membrane prep). The conditions noted are these: HEK-293 or CHO cells.
For experiment [7], the target named is T2, μ-opioid receptor. In words: μ-opioid receptor radioligand dose-displacement binding assay ([3H]-diprenorphine). More on the design: expressed in transfected cells; host or cells: HEK-293 or CHO. The conditions noted are these: HEK-293 or CHO cells; read-out: Ki Opioid Receptor μ. On the procedure:
Radioligand dose-displacement binding assays for μ-opioid receptors used 0.3 nM [^3H]-diprenorphine (Perkin Elmer, Shelton, Conn.), with […] membrane protein/well in a final volume of 500 μl binding buffer (10 mM MgCl2, 1 mM EDTA, 5% DMSO, 50 mM HEPES, pH 7.4). Reactions were carried out in the absence or presence of increasing concentrations of unlabeled naloxone. All reactions were conducted in 96-deep well polypropylene plates for 2 hr at room temperature. […] The data were analyzed using the one-site competition curve fitting functions in GraphPad PRISM™ v. 3.0 or higher (San Diego, Calif.), or an in-house function for one-site competition curve-fitting.

Some results are limits rather than exact numbers.

A word on the EC50: it is the concentration giving half of the maximal effect. As a reminder, the Emax is the size of the effect at its maximum, as opposed to the concentration needed. By Ki is commonly meant a measure of affinity in units of concentration, obtained from inhibition or displacement.

T3 sequence (P41146 whole entry): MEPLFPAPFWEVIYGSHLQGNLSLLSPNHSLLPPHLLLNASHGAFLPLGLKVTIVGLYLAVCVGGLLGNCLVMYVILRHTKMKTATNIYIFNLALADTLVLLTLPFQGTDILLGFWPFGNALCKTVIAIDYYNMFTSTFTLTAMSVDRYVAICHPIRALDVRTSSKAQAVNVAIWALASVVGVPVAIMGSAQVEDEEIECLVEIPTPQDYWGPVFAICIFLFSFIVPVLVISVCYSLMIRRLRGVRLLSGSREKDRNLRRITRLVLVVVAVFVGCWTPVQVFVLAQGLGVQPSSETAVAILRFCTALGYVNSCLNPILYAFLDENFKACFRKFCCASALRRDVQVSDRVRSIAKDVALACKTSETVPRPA
T1 sequence (P41145 whole entry): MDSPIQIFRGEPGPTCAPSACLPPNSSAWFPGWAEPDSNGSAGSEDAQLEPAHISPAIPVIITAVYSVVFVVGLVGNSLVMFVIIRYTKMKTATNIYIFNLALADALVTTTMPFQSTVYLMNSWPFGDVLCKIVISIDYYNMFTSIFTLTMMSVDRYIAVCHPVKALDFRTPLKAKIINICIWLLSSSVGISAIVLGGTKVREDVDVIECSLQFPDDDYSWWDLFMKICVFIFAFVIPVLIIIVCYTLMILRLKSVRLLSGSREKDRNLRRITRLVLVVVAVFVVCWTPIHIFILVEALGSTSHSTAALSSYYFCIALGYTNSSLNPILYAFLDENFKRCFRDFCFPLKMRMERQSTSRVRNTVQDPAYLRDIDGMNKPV
T2 sequence (P35372 whole entry, species assumed): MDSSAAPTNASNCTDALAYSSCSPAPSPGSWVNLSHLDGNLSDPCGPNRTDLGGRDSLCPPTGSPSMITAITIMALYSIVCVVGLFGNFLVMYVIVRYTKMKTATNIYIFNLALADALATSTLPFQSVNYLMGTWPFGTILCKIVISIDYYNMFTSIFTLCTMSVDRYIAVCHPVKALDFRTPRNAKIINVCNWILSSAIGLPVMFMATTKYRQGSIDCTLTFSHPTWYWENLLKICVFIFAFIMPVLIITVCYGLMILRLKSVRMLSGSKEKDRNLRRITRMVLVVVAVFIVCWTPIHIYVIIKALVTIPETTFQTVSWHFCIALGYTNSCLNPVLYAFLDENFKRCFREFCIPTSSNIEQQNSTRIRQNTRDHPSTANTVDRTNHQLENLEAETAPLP

In the case of `CN1CC[C@@]2(C)c3cc(O)ccc3C[C@@H]1[C@@H]2NCCc1ccc(S(N)(=O)=O)cc1` [Compound 92, 4-(2-(((2R,6S,11R)-8-hydroxy-3,6-dimethyl-1,2,3,4,5,6-hexahydro-2,6-methanobenzo[d]azocin-11-yl)amino)ethyl)benzenesulfonamide], the concentration for a half-maximal effect (EC50) in experiment [1] was greater than 20 µM; in experiment [2], greater than 20 µM; in experiment [3], 0.149 ± 0.0255 µM; in experiment [4], 0.0689 ± 0.016 µM. For the same compound, the Emax in experiment [1] is 1%; in experiment [2], 3.5 ± 1.71%; in experiment [3] it was 97.3 ± 3.53%; in experiment [4] it was 100 ± 3.12%. Moreover, the values for the Ki in experiment [5], in experiment [6] and in experiment [7] were greater than 20 µM, 0.163 ± 0.00383 µM and 0.0545 ± 0.0173 µM, respectively.

As for `CN1CC[C@]2(C)c3cc(O)ccc3C[C@H]1[C@H]2NCCc1ccc(S(N)(=O)=O)cc1` [Compound 93, 4-(2-(((2S,6R,11S)-8-hydroxy-3,6-dimethyl-1,2,3,4,5,6-hexahydro-2,6-methanobenzo[d]azocin-11-yl)amino)ethyl)benzenesulfonamide], the results for the EC50 in experiment [1], in experiment [3] and in experiment [4] were greater than 20 µM, 4.56 ± 0.743 µM and 3.14 ± 0.79 µM, respectively. The Emax was 2% in experiment [1], 80.7 ± 4.48% in experiment [3] and 92 ± 4.3% in experiment [4]. The results for the Ki in experiment [5], in experiment [6] and in experiment [7] were greater than 20 µM, 5.35 ± 0.541 µM and 3.7 ± 0.0914 µM, respectively.

In the case of `CN1CC[C@@]2(C)c3cc(O)ccc3C[C@@H]1[C@H]2NCCc1ccc(S(N)(=O)=O)cc1` [Compound 94, 4-(2-(((2R,6S,11S)-8-hydroxy-3,6-dimethyl-1,2,3,4,5,6-hexahydro-2,6-methanobenzo[d]azocin-11-yl)amino)ethyl)benzenesulfonamide], the concentration for a half-maximal effect (EC50) in experiment [1] is greater than 20 µM; in experiment [2], greater than 20 µM; in experiment [3], 0.0274 ± 0.0042 µM; in experiment [4] it was 0.0408 ± 0.00276 µM. In addition, the Emax in experiment [1] is 0%; in experiment [2], 4.6 ± 0.4%; in experiment [3], 85.3 ± 5.93%; in experiment [4] it was 85.3 ± 4.98%. The values for the Ki in experiment [5], in experiment [6] and in experiment [7] were greater than 20 µM, 0.0168 ± 0.00251 µM and 0.0368 ± 0.0121 µM, respectively.

Consider `CN1CC[C@]2(C)c3cc(O)ccc3C[C@H]1[C@@H]2NCCc1ccc(S(N)(=O)=O)cc1` [Compound 95, 4-(2-(((2S,6R,11R)-8-hydroxy-3,6-dimethyl-1,2,3,4,5,6-hexahydro-2,6-methanobenzo[d]azocin-11-yl)amino)ethyl)benzenesulfonamide], for which the half-maximal effective concentration (EC50) in experiment [1] is greater than 20 µM; in experiment [3] it was 1.44 ± 0.0447 µM; in experiment [4], 2.12 ± 0.204 µM. The Emax in experiment [1] is -1%; in experiment [3] it was 79.7 ± 8.41%; in experiment [4], 78 ± 3.06%. Moreover, the Ki is greater than 20 µM in experiment [5], 4.6 ± 0.764 µM in experiment [6] and 1.76 ± 0.324 µM in experiment [7].
